Test results from PMC5584254, “Identification of novel small molecule Beclin 1 mimetics activating autophagy” (Oncotarget, 2017).
Structures can show the parent of a compound that is named as a salt.

How the values were obtained:
[1] = biological target: T1, Bcl-xL-Beclin 1 20-mer complex (Homo sapiens, UniProt Q07817); experiment: FP competitive binding assay (disruption of Bcl-xL-20-mer complex); settings: 2.5 μM Bcl-xL protein, 400 nM fluorescein-labeled 20-mer
T1 construct: made in house
Description: Figure 1 FP-based HTS for Beclin 1 mimetics (A) Schematic presentation of the Beclin 1 protein and sequences of five synthetic peptides modified from Beclin 1 BH3 peptide. Diagram of human Beclin 1 protein with different domains is shown in the bottom. BH3 domain is necessary and sufficient for interaction with Bcl-2/Bcl-xL. Amino acids in red are the critical residues for the binding. (B) Five fluorescein-labeled Beclin 1 BH3 peptides were tested for their binding ability to Bcl-xL protein in FP assay. Fluorescein-labeled Bak BH3 peptide was used as a positive control. Bcl-xL protein was titrated to a solution of 50 nM peptides. (C) Competitive binding assay with positive controls, ABT-263 and (–)-gossypol ((–)G). […] (D–E) HTS was performed with ~50000 compounds from Prestwick, Microsource, CMLD and Chembridge libraries. The four libraries were divided into two groups and screened separately. Compounds activity (percent of inhibition) of first screen (D) and second screen (E) were shown with Z′ value indicated on top. Plate median + 3SD was used as a threshold to determine the initial hits.
Bcl-xL protein was immobilized on the sensor chip with 10000 RU.
All N′-fluorescein-labeled peptides were purchased from Kansas State University (Manhattan, KS). […] 16mer Bak ([…]) sequence was from published literature. Bcl-xL protein (25 kDa, > 90% pure based on SDS–PAGE) was expressed and purified in Protein Product Group, University of Kansas. FP assays were carried out as described in our previous publication with some modified. […] Then, fluorescein-labeled peptide was added to each well with a final concentration of 50 nM and incubated at room temperature for 30 min. Anisotropy measurements were taken at room temperature using a BioTek Synergy H4 plate reader (Biotek, Winooski, VT) following the protocol recommended by the manufacture. The Kd was estimated by nonlinear regression to a one-site binding model using GraphPad Prism 5.0 (GraphPad, San Diego, CA). […] Compound solvent DMSO only was used as a negative control in the competition assay. After 2 h incubation, the plate was read and polarization was calculated.

Bcl-xL-Beclin 1 complex = biological target: T2, Bcl-xL-Beclin 1 complex (Homo sapiens, UniProt Q07817); experiment: FP-based high-throughput screening, primary screen; assay type: binding; settings: first screen; 40 μM compound, 2.5 μM Bcl-xL, 400 nM 20-mer
T2 construct: made in house
T2 sequence (Q07817 whole entry, one chain of several): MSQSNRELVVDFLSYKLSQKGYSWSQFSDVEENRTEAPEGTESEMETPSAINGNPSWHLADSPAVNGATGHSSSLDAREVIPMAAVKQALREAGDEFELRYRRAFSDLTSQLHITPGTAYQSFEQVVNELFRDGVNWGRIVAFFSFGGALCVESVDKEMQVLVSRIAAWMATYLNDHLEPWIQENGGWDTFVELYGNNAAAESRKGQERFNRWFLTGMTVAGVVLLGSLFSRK
Summary of the method: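 Competitive fluorescence polarization binding assay for Bcl-xL–Beclin 1, run in 384-well format against compound libraries. Hits were reconfirmed in concentration-response FP: 6 doses from 5 μM to 160 μM or 8 doses from 0.5 μM to 60 μM.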

T1 sequence (Q07817 whole entry, one chain of several): as above

Row | IC50 [1] [µM] | Ki [1] [µM] | Primary Screen mP (Bcl-xL-Beclin 1 complex) [mP] | inhibition at 40 µM (Bcl-xL-Beclin 1 complex) [%] | SMILES
1 | 4.84 | 0.84 | -3.2 | 102 | Nc1ccc2cc3ccc(N)cc3nc2c1 [Compound A13, PROFLAVINE HEMISULFATE]
2 | 102 | 28 | 83.5 | 37.9 | CCOc1ccc2nc3cc(N)ccc3c(N)c2c1 [Compound A15, ETHACRIDINE LACTATE]
3 | 48.7 | 13.2 | 72.2 | 48.2 | CCN(CC)CCCC(C)Nc1c2ccc(Cl)cc2nc2ccc(OC)cc12 (stereo not drawn) [Compound A21, QUINACRINE HYDROCHLORIDE]
